Assay results taken from PubChem BioAssay (NCI).
Several values for one entry are separate records, joined by “and”; a condition that tells them apart may be missing. Equal entries are not always repeated.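 Protocol summary: plate cells (96-well), add compound at 5 concentrations, incubate 48 h, interpolate endpoints linearly. GI50 is the concentration that inhibits growth by half. TGI: concentration producing complete growth inhibition.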

Legend:
Experiment in all cases: inhibition of tumour cell growth, NCI panel, 48 h
HOP-62 NSCLC = tested on: HOP-62 NSCLC
NCI/ADR-RES ovarian = tested on: NCI/ADR-RES ovarian
HL-60(TB) leukemia = tested on: HL-60(TB) leukemia
RPMI-8226 leukemia = tested on: RPMI-8226 leukemia
LOX IMVI melanoma = tested on: LOX IMVI melanoma
ACHN renal = tested on: ACHN renal
IGROV1 ovarian = tested on: IGROV1 ovarian
SF-539 CNS = tested on: SF-539 CNS
SF-268 CNS = tested on: SF-268 CNS
KM12 colon = tested on: KM12 colon

Row | Compound | GI50 (HOP-62 NSCLC) | TGI (HOP-62 NSCLC) | GI50 (NCI/ADR-RES ovarian) | TGI (NCI/ADR-RES ovarian) | GI50 (HL-60(TB) leukemia) | TGI (HL-60(TB) leukemia) | GI50 (RPMI-8226 leukemia) | TGI (RPMI-8226 leukemia) | GI50 (LOX IMVI melanoma) | TGI (LOX IMVI melanoma) | GI50 (ACHN renal) | TGI (ACHN renal) | GI50 (IGROV1 ovarian) | TGI (IGROV1 ovarian) | GI50 (SF-539 CNS) | TGI (SF-539 CNS) | GI50 (SF-268 CNS) | TGI (SF-268 CNS) | GI50 (KM12 colon) | TGI (KM12 colon)
1 | COc1ccc(C2=C(c3ccc(OC)cc3)C(=O)N3CCCC3C2)cc1 (stereo not drawn) | 16.5 µM | > 100 µM | 10.3 µM | > 100 µM | 4.36 µM | 28.4 µM | > 100 µM | > 100 µM | 3.87 µM | 25.6 µM | 15 µM | > 100 µM | 18.1 µM | > 100 µM | 7.95 µM | 77.1 µM | 16.4 µM | > 100 µM | 9.26 µM | > 100 µM
2 | O=C1c2cccc3cccc(c23)C(=O)N1CCCCCN1CCN(CCCCCOc2ccc(-c3nc4ccc(N5CCOCC5)cc4[nH]3)cc2)CC1 | 35.7 µM | 79.2 µM | 8.7 µM | > 60.2 µM | 0.372 µM | > 19.9 µM | 0.787 µM | 3.72 µM | 3.01 µM | 7.97 µM | > 35.7 µM | > 56.1 µM | 1.76 µM | 8.08 µM | 10.6 µM | 29 µM | 22.4 µM | 43.2 µM | 2.15 µM | 4.29 µM
3 | S=c1[nH]c2c(Cl)c(Cl)c(Cl)c(Cl)c2[nH]1 | – | 80.2 µM | – | 46.5 µM | – | 13 µM | – | 30.1 µM | – | 40.8 µM | – | 40.7 µM | – | 37.8 µM | – | 26.3 µM | – | 42.7 µM | – | 33.8 µM
4 | CN(C)c1ncnc2c1ncn2CCn1cnc2c(N(C)C)ncnc21 | – | > 100 µM | – | > 100 µM | – | > 100 µM | – | > 100 µM | – | > 100 µM | – | > 100 µM | – | > 100 µM | – | > 100 µM | – | > 100 µM | – | > 100 µM
5 | CCc1c(Cl)c(C)cc(O)c1Cl | – | > 100 µM | – | > 100 µM | – | 40.8 µM | – | 57.5 µM | – | 51.7 µM | – | 60.6 µM | – | > 100 µM | – | 78.9 µM | – | > 100 µM | – | > 100 µM
6 | COc1ccc2c(c1)c[n+](C)c1c3cc(OC)c(OC)cc3ccc21 | 4.63 µM | 15.2 µM | – | > 100 µM | 0.467 µM and 1.85 µM | 3.48 µM and 16.9 µM | – | 7.28 µM | – | 2.65 µM and 4.96 µM | 2.42 µM and 9.86 µM | 5.01 µM and 23.8 µM | 1.39 µM and 4.4 µM | 2.85 µM and 15.8 µM | 1.95 µM and 6.15 µM | 3.5 µM and 13.9 µM | – | 9.9 µM | 1.21 µM and 2.88 µM | 2.79 µM and 9.42 µM
7 | COc1cc2c3c(c1OC)-c1cc4c(cc1CC3(C#N)N(C(=O)c1ccccc1)CC2)OCO4 (stereo not drawn) | – | > 76.1 µM | – | > 100 µM | – | > 100 µM | – | > 100 µM | – | > 93.6 µM | – | > 97.2 µM | – | > 82.3 µM | – | 54.7 µM | – | > 91 µM | – | > 100 µM
8 | Cn1c(=O)c(Oc2ccc(F)cc2)cc2cnc(NC3CCOCC3)nc21 | > 25 µM | > 25 µM | > 25 µM | > 25 µM | > 25 µM | > 25 µM | > 25 µM | > 25 µM | > 25 µM | > 25 µM | > 25 µM | > 25 µM | > 25 µM | > 25 µM | > 25 µM | > 25 µM | > 25 µM | > 25 µM | > 25 µM | > 25 µM
9 | CS(=O)(=O)Nc1cc(-c2ccc3ncnc(Nc4c(Cl)ccc5c4OCO5)c3c2)cnc1Cl | 0.156 µM | 3.53 µM | 0.477 µM | 4.19 µM | 0.159 µM | 0.92 µM | 0.148 µM | 0.566 µM | 0.172 µM | 1.08 µM | 0.186 µM | > 48.1 µM | 0.0332 µM | 0.209 µM | 0.208 µM | 0.988 µM | 0.119 µM | 1.48 µM | 0.465 µM | 1.87 µM
10 | C[C@@]12CCC[C@@](C)(C(=O)O)C1CC[C@]13CC(=O)[C@](CO)(C1)[C@@H](O)CC32 (stereo partly drawn) | > 100 µM | > 100 µM | > 100 µM | > 100 µM | > 100 µM | > 100 µM | > 100 µM | > 100 µM | > 100 µM | > 100 µM | > 100 µM | > 100 µM | > 100 µM | > 100 µM | > 100 µM | > 100 µM | > 100 µM | > 100 µM | > 100 µM | > 100 µM
11 | O=S(=O)(Nc1ccc(Cl)cc1Cl)c1ccc(-c2cnc(C3CC3)o2)cc1 | 0.909 µM | 55.4 µM | 0.51 µM | 17.5 µM | 0.351 µM | 9.41 µM | 0.903 µM | 44.8 µM | 0.542 µM | 34 µM | 0.639 µM | 21.5 µM | 0.647 µM | > 73.3 µM | 0.414 µM | 7.55 µM | 2.85 µM | 72.9 µM | 0.485 µM | 25.9 µM
12 | CC1(Br)Cc2ccccc2C1=O (stereo not drawn) | – | 29.1 µM | – | > 100 µM | 0.495 µM | 6.67 µM and 2.35 µM | 3.02 µM | 14.7 µM | 0.533 µM | 2.41 µM | – | 16.8 µM | – | 15 µM | – | 16.8 µM | – | 20.2 µM | – | 25.8 µM
13 | O=C(NNc1ccccc1)C(=O)NNc1ccccc1 | > 100 µM | > 100 µM | > 100 µM | > 100 µM | 0.627 µM | 5.28 µM | > 100 µM | > 100 µM | 4.34 µM | > 100 µM | 2.03 µM | > 100 µM | > 100 µM | > 100 µM | 2.63 µM | 14.5 µM | 1.63 µM | > 100 µM | 0.535 µM | > 100 µM
14 | COc1ccc(-c2nnc(N3CCN(C(=O)CN4CCN(c5ccccc5)CC4)CC3)nc2-c2ccc(OC)cc2)cc1 | 13 µM | 42.7 µM | 5.15 µM | > 100 µM | 1.89 µM | 5.56 µM | 2.06 µM | 5.16 µM | 5.78 µM | > 100 µM | 3.92 µM | 21.7 µM | 11.1 µM | > 100 µM | 6.03 µM | 35.3 µM | 83.4 µM | > 100 µM | 3.67 µM | > 100 µM
15 | COC(=O)c1ccc2c(c1)/C(=C\c1cc(Br)c(O)c(Br)c1)C(=O)N2 | 10.5 µM | > 25 µM | 15.7 µM | > 25 µM | 4.97 µM | 14.6 µM | 5.21 µM | > 25 µM | 4.13 µM | > 25 µM | 6.27 µM | > 25 µM | 7.29 µM | > 25 µM | 5.85 µM | > 25 µM | 10.1 µM | > 25 µM | 6.79 µM | > 25 µM
16 | CCc1ccc(/C=C/c2ccc(O)c3ncccc23)[n+](C)c1 | – | > 100 µM | > 100 µM | > 100 µM | 18.8 µM | 73.2 µM | 3.08 µM | > 100 µM | 35.8 µM | > 100 µM | > 61.1 µM | > 100 µM | 11.4 µM | > 100 µM | 20.4 µM | > 100 µM | 0.749 µM | > 100 µM | 0.512 µM | > 100 µM
17 | CN1CC[C@@H](c2c(O)cc(O)c3c(=O)cc(-c4ccc(C(F)(F)F)cc4Cl)oc23)[C@@H]1CO | 17.2 µM | 43.5 µM | 19.1 µM | 51.6 µM | 8.37 µM | 33.6 µM | 17.3 µM | 53.5 µM | 11.9 µM | 25.6 µM | 10.6 µM | 38 µM | 11.8 µM | 38.6 µM | 13.7 µM | 28.8 µM | 15.2 µM | 39.6 µM | 13.7 µM | 30.4 µM
18 | COc1cc(/C=C/C(=O)c2cccc(-n3cc(-c4ccc(Cl)cc4)[nH]c3=O)c2)ccc1O | 3.87 µM | 15 µM | 2.78 µM | > 30.5 µM | 4.56 µM | > 24.3 µM | 1.33 µM | 3.76 µM | 1.64 µM | 4.03 µM | 2.19 µM | 4.95 µM | 2 µM | 5.61 µM | 1.86 µM | 4.05 µM | 2.93 µM | 12.6 µM | 1.6 µM | 3.42 µM
19 | COC(=O)C1=CN(CC2=CC(=O)C(C)=CC2=O)C=C(C(=O)OC)C1c1cccc(OC)c1 | 19.3 µM | 38.9 µM | 12.4 µM | 60.2 µM | 4.76 µM | > 100 µM | 1.95 µM | 5.06 µM | 17.6 µM | 42.7 µM | 2.78 µM | 7.99 µM | 12.8 µM | > 58.1 µM | 8.25 µM | 23.3 µM | 12.1 µM | 30.8 µM | 8.34 µM | 26.9 µM
20 | CCN(Cc1ccc(F)cc1)c1ccc(CO)c(Br)c1 | 0.646 µM | 20.2 µM | 13.4 µM | 46.8 µM | 3.26 µM | 26.4 µM | 0.646 µM | 22.1 µM | 11.6 µM | 26.1 µM | 10.2 µM | 42 µM | 0.0402 µM | 0.202 µM | 15 µM | 29.4 µM | 22.6 µM | > 56.3 µM | 23.4 µM | 63.1 µM
21 | CN(C)CCSc1cc(-c2ccccc2)c2ccccc2n1 | – | 22.9 µM | – | 31.5 µM | – | > 100 µM | – | > 100 µM | – | 26.6 µM | – | 26.7 µM | – | 25.5 µM | – | 23 µM | – | 27.1 µM | – | 29 µM
22 | COc1ccc(Cn2c(N)c(S(=O)(=O)c3ccc(Cl)cc3)c3nc(C#N)c(C#N)nc32)cc1 | > 50 µM | > 50 µM | 1.15 µM | 6 µM | > 50 µM | > 50 µM | 22.5 µM | > 50 µM | 8.27 µM | 38.3 µM | 6.22 µM | > 50 µM | 21.6 µM | > 50 µM | > 50 µM | > 50 µM | 9.25 µM | 42.3 µM | 28 µM | > 50 µM
23 | COC12C(COC(N)=O)C3=C(C(=O)C(C)=C(N)C3=O)N1CC1C2N1C (stereo not drawn) | – | 16.8 µM | – | 268 µM | – | 8.66 µM | – | > 85.5 µM | – | 20.2 µM | – | 25.3 µM | – | 28.6 µM | – | 46.7 µM | – | 47 µM | – | 43.7 µM
